Earlier results in patent US20250242064A1, “CXCR4-TARGETING COMPOUNDS, AND METHODS OF MAKING AND USING THE SAME” (PROVINCIAL HEALTH SERVICES AUTHORITY, priority 2022, published 2025).
pIC50: −log10 of the molar value.

Tests used:
[1] = tested on: non-Hodgkin lymphoma, renal cell carcinoma, lung cancer, colorectal cancer, and breast cancer xenograft models; details: reported; cited from earlier work
[2] = tested on: small cell lung cancer patients; details: reported; cited from earlier work
CXCR4 = CXCR4 (Homo sapiens, UniProt P61073); details: reported; read-out: IC50, block of SDF-1a binding to CXCR4; cited from earlier work
Sequence of CXCR4 (P61073 whole entry, species assumed): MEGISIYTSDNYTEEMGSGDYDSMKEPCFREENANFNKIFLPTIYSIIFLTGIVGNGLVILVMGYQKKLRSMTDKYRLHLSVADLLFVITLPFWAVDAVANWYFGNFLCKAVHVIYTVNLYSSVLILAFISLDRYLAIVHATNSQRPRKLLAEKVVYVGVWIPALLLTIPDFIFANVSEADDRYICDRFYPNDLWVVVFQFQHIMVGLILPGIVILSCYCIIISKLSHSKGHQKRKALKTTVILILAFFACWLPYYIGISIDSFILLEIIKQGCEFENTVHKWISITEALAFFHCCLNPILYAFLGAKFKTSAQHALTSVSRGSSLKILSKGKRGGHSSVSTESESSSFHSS

cyclo[Phe-Tyr-Lys(iPr)-D-Arg-2-Nal-Gly-D-Glu]-Lys(iPr)-NH2 [LY2510924]
inhibition of growth of xenograft models [1]: able to inhibit growth | treatment efficacy with carboplatin/etoposide chemotherapy [2]: failed to improve treatment efficacy | pIC50 (CXCR4): 10.10
